ChEMBL document CHEMBL1201862, “PubChem BioAssay data set” (2004)
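Growth conditions: 96-well plates. Treatment: test compound, 48 hours, 5 concentrations. Analysis: linear interpolation between bracketing concentrations; unreached endpoints set to highest concentration. At the GI50, growth is halved.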 Activity calls are given as the source filed them. Rule as the data show it: active = GI50 up to about 1.1 µM and inactive = higher.

Experiments:
Experiment in all cases: NCI anticancer screen, dose series, 48 h
LOX IMVI = tested on: LOX IMVI
HCT-116 = tested on: HCT-116
EKVX = tested on: EKVX
SR = tested on: SR
HL-60 = tested on: HL-60
HOP-92 = tested on: HOP-92
RXF 393 = tested on: RXF 393
T47D = tested on: T47D
PC-3 = tested on: PC-3
UO-31 = tested on: UO-31
786-0 = tested on: 786-0
U-251 = tested on: U-251
IGROV-1 = tested on: IGROV-1
Malme-3M = tested on: Malme-3M
OVCAR-4 = tested on: OVCAR-4
CCRF-CEM = tested on: CCRF-CEM
NCI-H522 = tested on: NCI-H522
SN12C = tested on: SN12C
DU-145 = tested on: DU-145
SNB-75 = tested on: SNB-75
TK-10 = tested on: TK-10
MDA-N = tested on: MDA-N
KM12 = tested on: KM12
MDA-MB-435 = tested on: MDA-MB-435
SW-620 = tested on: SW-620
NCI-H23 = tested on: NCI-H23
SK-MEL-28 = tested on: SK-MEL-28
SF-295 = tested on: SF-295
M14 = tested on: M14
K562 = tested on: K562
OVCAR-5 = tested on: OVCAR-5
OVCAR-3 = tested on: OVCAR-3
NCI-H460 = tested on: NCI-H460
HCT-15 = tested on: HCT-15
HT-29 = tested on: HT-29
ACHN = tested on: ACHN
NCI-H226 = tested on: NCI-H226
SK-MEL-2 = tested on: SK-MEL-2
MDA-MB-231 = tested on: MDA-MB-231
HOP-62 = tested on: HOP-62
COLO 205 = tested on: COLO 205
A549 = tested on: A549
MCF7 = tested on: MCF7
UACC-62 = tested on: UACC-62
UACC-257 = tested on: UACC-257
OVCAR-8 = tested on: OVCAR-8
SF-539 = tested on: SF-539
A498 = tested on: A498
NCI/ADR-RES = tested on: NCI/ADR-RES
BT-549 = tested on: BT-549
RPMI-8226 = tested on: RPMI-8226
Hs-578T = tested on: Hs-578T
SNB-19 = tested on: SNB-19
SF-268 = tested on: SF-268
SK-OV-3 = tested on: SK-OV-3
CAKI-1 = tested on: CAKI-1
SK-MEL-5 = tested on: SK-MEL-5
MOLT-4 = tested on: MOLT-4

## CCC1CC(=O)N(SCC(N)C(=O)O)C1=O (stereo unspecified)
LOX IMVI
  GI50: > 100 µM (inactive)
HCT-116
  GI50: > 100 µM (inactive)
EKVX
  GI50: > 100 µM (inactive)
SR
  GI50: > 100 µM (inactive)
HL-60
  GI50: > 100 µM (inactive)
HOP-92
  GI50: > 100 µM (inactive)
RXF 393
  GI50: > 100 µM (inactive)
T47D
  GI50: > 100 µM (inactive)
PC-3
  GI50: > 100 µM (inactive)
UO-31
  GI50: > 100 µM (inactive)
786-0
  GI50: > 100 µM (inactive)
U-251
  GI50: > 100 µM (inactive)
IGROV-1
  GI50: > 100 µM (inactive)
Malme-3M
  GI50: > 100 µM (inactive)
OVCAR-4
  GI50: > 100 µM (inactive)
CCRF-CEM
  GI50: > 100 µM (inactive)
NCI-H522
  GI50: > 100 µM (inactive)
SN12C
  GI50: > 100 µM (inactive)
DU-145
  GI50: > 100 µM (inactive)
SNB-75
  GI50: > 100 µM (inactive)
TK-10
  GI50: > 100 µM (inactive)
MDA-N
  GI50: > 100 µM (inactive)
KM12
  GI50: > 100 µM (inactive)
MDA-MB-435
  GI50: > 100 µM (inactive)
SW-620
  GI50: > 100 µM (inactive)
NCI-H23
  GI50: > 100 µM (inactive)
SK-MEL-28
  GI50: > 100 µM (inactive)
SF-295
  GI50: > 100 µM (inactive)
M14
  GI50: > 100 µM (inactive)
K562
  GI50: > 100 µM (inactive)
OVCAR-5
  GI50: > 100 µM (inactive)
OVCAR-3
  GI50: > 100 µM (inactive)
NCI-H460
  GI50: > 100 µM (inactive)
HCT-15
  GI50: > 100 µM
HT-29
  GI50: > 100 µM (inactive)
ACHN
  GI50: > 100 µM (inactive)
NCI-H226
  GI50: > 100 µM (inactive)
SK-MEL-2
  GI50: > 100 µM (inactive)
MDA-MB-231
  GI50: > 100 µM (inactive)
HOP-62
  GI50: > 100 µM (inactive)
COLO 205
  GI50: > 100 µM (inactive)
A549
  GI50: > 100 µM (inactive)
MCF7
  GI50: > 100 µM (inactive)
UACC-62
  GI50: > 100 µM (inactive)
UACC-257
  GI50: > 100 µM (inactive)
OVCAR-8
  GI50: > 100 µM (inactive)
SF-539
  GI50: > 100 µM (inactive)
A498
  GI50: > 100 µM (inactive)
NCI/ADR-RES
  GI50: > 100 µM (inactive)
BT-549
  GI50: > 100 µM (inactive)
RPMI-8226
  GI50: > 100 µM (inactive)
Hs-578T
  GI50: > 100 µM (inactive)
SNB-19
  GI50: > 100 µM (inactive)
SF-268
  GI50: > 100 µM (inactive)
SK-OV-3
  GI50: > 100 µM (inactive)
CAKI-1
  GI50: > 100 µM (inactive)
SK-MEL-5
  GI50: > 100 µM (inactive)

## CC(Cc1ccc(Cl)cc1Cl)NO (stereo unspecified)
LOX IMVI
  GI50: > 100 µM (inactive)
HCT-116
  GI50: 83.6 µM (inactive)
MOLT-4
  GI50: 83.6 µM (inactive)
EKVX
  GI50: 58.2 µM (inactive)
SR
  GI50: > 100 µM (inactive)
RXF 393
  GI50: > 100 µM (inactive)
T47D
  GI50: > 100 µM (inactive)
PC-3
  GI50: > 100 µM (inactive)
UO-31
  GI50: > 100 µM (inactive)
786-0
  GI50: > 100 µM (inactive)
U-251
  GI50: > 100 µM (inactive)
IGROV-1
  GI50: > 100 µM (inactive)
Malme-3M
  GI50: > 100 µM (inactive)
OVCAR-4
  GI50: > 100 µM (inactive)
CCRF-CEM
  GI50: > 100 µM (inactive)
NCI-H522
  GI50: 66.5 µM (inactive)
SN12C
  GI50: 92.7 µM (inactive)
DU-145
  GI50: > 100 µM (inactive)
SNB-75
  GI50: 94 µM (inactive)
TK-10
  GI50: > 100 µM (inactive)
MDA-N
  GI50: > 100 µM (inactive)
KM12
  GI50: > 100 µM (inactive)
MDA-MB-435
  GI50: > 100 µM (inactive)
SW-620
  GI50: > 100 µM (inactive)
NCI-H23
  GI50: > 100 µM (inactive)
SK-MEL-28
  GI50: > 100 µM (inactive)
SF-295
  GI50: > 100 µM (inactive)
M14
  GI50: > 100 µM (inactive)
K562
  GI50: 83.9 µM (inactive)
OVCAR-5
  GI50: > 100 µM (inactive)
OVCAR-3
  GI50: > 100 µM (inactive)
HCT-15
  GI50: > 100 µM
HT-29
  GI50: > 100 µM (inactive)
ACHN
  GI50: > 100 µM (inactive)
NCI-H226
  GI50: 46.3 µM (inactive)
SK-MEL-2
  GI50: > 100 µM (inactive)
MDA-MB-231
  GI50: > 100 µM (inactive)
HOP-62
  GI50: > 100 µM (inactive)
COLO 205
  GI50: > 100 µM (inactive)
A549
  GI50: > 100 µM (inactive)
MCF7
  GI50: > 100 µM (inactive)
UACC-62
  GI50: > 100 µM (inactive)
UACC-257
  GI50: > 100 µM (inactive)
OVCAR-8
  GI50: > 100 µM (inactive)
A498
  GI50: > 100 µM (inactive)
NCI/ADR-RES
  GI50: > 100 µM (inactive)
BT-549
  GI50: > 100 µM (inactive)
RPMI-8226
  GI50: 78 µM (inactive)
Hs-578T
  GI50: 80 µM (inactive)
SNB-19
  GI50: > 100 µM (inactive)
SF-268
  GI50: > 100 µM (inactive)
SK-OV-3
  GI50: > 100 µM (inactive)
CAKI-1
  GI50: > 100 µM (inactive)
SK-MEL-5
  GI50: 95.7 µM (inactive)
